Results as given in paper PMC8327648 (Acta Pharmaceutica Sinica. B, 2021).

Columns and labels:
[1] = test system: SARS-CoV-2 PsV; details: 12 h
[2] = test system: SARS-CoV-2 S protein-mediated cell–cell fusion; details: 2 h
[3] = test system: trypsin; details: n = 3
[4] = target: proteinase K (Parengyodontium album, UniProt P06873); details: n = 3
[5] = test system: pseudotyped HCoV-NL63; details: 12 h
[6] = test system: authentic SARS-CoV-2; details: 48 h
[7] = test system: authentic HCoV-OC43; details: 36 h

Chain of proteinase K (P06873 106-384): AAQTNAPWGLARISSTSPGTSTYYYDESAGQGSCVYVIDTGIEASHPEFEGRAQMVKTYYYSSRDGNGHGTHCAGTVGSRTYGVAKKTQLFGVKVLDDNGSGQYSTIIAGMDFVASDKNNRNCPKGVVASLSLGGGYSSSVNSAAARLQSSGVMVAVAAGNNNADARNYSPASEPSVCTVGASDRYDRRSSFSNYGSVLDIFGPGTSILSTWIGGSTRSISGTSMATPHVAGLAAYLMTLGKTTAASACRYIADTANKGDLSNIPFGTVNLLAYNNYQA

Structure (SMILES)	IC50 [1] [nM]	IC50 [2] [nM]	sensitivity to trypsin (residual inhibitory activity over time) [3]	sensitivity to proteinase K (residual inhibitory activity over time) [4]	IC50 [5] [nM]	IC50 [6] [nM]	IC50 [7] [nM]
CC[C@H](C)[C@H](NC(=O)[C@H](C)NC(=O)[C@H](CCC(=O)O)NC(=O)[C@H](CCC(=O)O)NC(=O)[C@H](CC(C)C)NC(=O)[C@H](CCCCN)NC(=O)[C@H](CCCCN)NC(=O)[C@H](CCSC)NC(=O)[C@H](CCC(=O)O)NC(=O)[C@H](Cc1ccc(O)cc1)NC(=O)[C@H](CCC(=O)O)NC(=O)[C@H](CC(C)C)NC(=O)[C@H](CC(=O)O)NC(=O)[C@H](CC(C)C)NC(=O)[C@H](Cc1ccccc1)NC(=O)[C@@H](NC(=O)[C@@H](NC(=O)[C@H](CC(N)=O)NC(=O)[C@@H](NC(=O)[C@H](CCC(N)=O)NC(=O)[C@H](CC(=O)O)NC(=O)[C@H](CC(C)C)NC(=O)[C@@H](N)CO)[C@@H](C)CC)C(C)C)[C@@H](C)O)C(=O)N[C@@H](CCCCN)C(=O)N[C@@H](CCCCN)C(=O)N[C@@H](CC(C)C)C(=O)N[C@@H](CCC(=O)O)C(=O)N[C@@H](CCC(=O)O)C(=O)N[C@@H](CO)C(=O)N[C@@H](Cc1ccc(O)cc1)C(=O)N[C@H](C(=O)N[C@@H](CC(=O)O)C(=O)N[C@@H](CC(C)C)C(=O)N[C@@H](CCCCN)C(=O)N[C@@H](CCC(=O)O)C(=O)N[C@@H](CC(C)C)C(=O)NCC(=O)N[C@@H](CO)C(=O)NCC(=O)N[C@@H](CO)C(=O)NCC(=O)NCCOCCOCCOCCOCCC(=O)N[C@@H](CSCC(=O)O[C@H]1CC[C@@]2(C)C(=CC[C@H]3[C@@H]4CC[C@H]([C@H](C)CCCC(C)C)[C@@]4(C)CC[C@@H]32)C1)C(N)=O)[C@@H](C)CC [EK1C4]	7 to 27	3	gradually decreased more significantly	gradually decreased more significantly	–	–	–
CC[C@H](C)[C@H](NC(=O)[C@H](C)NC(=O)[C@H](CCC(=O)O)NC(=O)[C@H](CCC(=O)O)NC(=O)[C@H](CC(C)C)NC(=O)[C@H](CCCCN)NC(=O)[C@H](CCCCN)NC(=O)[C@H](CCSC)NC(=O)[C@H](CCC(=O)O)NC(=O)[C@H](Cc1ccc(O)cc1)NC(=O)[C@H](CCC(=O)O)NC(=O)[C@H](CC(C)C)NC(=O)[C@H](CC(=O)O)NC(=O)[C@H](CC(C)C)NC(=O)[C@H](Cc1ccccc1)NC(=O)[C@@H](NC(=O)[C@@H](NC(=O)[C@H](CC(N)=O)NC(=O)[C@@H](NC(=O)[C@H](CCC(N)=O)NC(=O)[C@H](CC(=O)O)NC(=O)[C@H](CC(C)C)NC(=O)[C@@H](N)CO)[C@@H](C)CC)C(C)C)[C@@H](C)O)C(=O)N[C@@H](CCCCN)C(=O)N[C@@H](CCCCN)C(=O)N[C@@H](CC(C)C)C(=O)N[C@@H](CCC(=O)O)C(=O)N[C@@H](CCC(=O)O)C(=O)N[C@@H](CO)C(=O)N[C@@H](Cc1ccc(O)cc1)C(=O)N[C@H](C(=O)N[C@@H](CC(=O)O)C(=O)N[C@@H](CC(C)C)C(=O)N[C@@H](CCCCN)C(=O)N[C@@H](CCC(=O)O)C(=O)N[C@@H](CC(C)C)C(N)=O)[C@@H](C)CC [EK1]	–	320	–	–	1340	71	2430
